Measured values published in the supplement of paper PMC10307832.

Compound: Cc1nc(C(=O)NCC(=O)O)c(O)c2ccc(Oc3ccccc3)cc12 [FG-4592] + CS(=O)(=O)N1CCN(Cc2cc3nc(-c4cccc5[nH]ncc45)nc(N4CCOCC4)c3s2)CC1 [Pictilisib] (partner 1 µM)
Experiment: relative viability (nuclei count vs DMSO), 5 days (fraction); higher = more cells survive
Settings: first compound 8 µM
Outline: (§1)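 The day after seeding in 1536-well plates, lung cancer cell lines were treated by pin tool with a single drug, or with a fixed anchor-drug dose together with five library-drug doses (not always all listed) in √10 steps. After 5 days, a combined fix-and-stain solution (final 0.05% Triton X-100, 1% formaldehyde, 1 ug/ml Hoechst) was added. Nuclei counted on 4× images gave relative viability as treated counts over vehicle counts, reported as the median of duplicate plates.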

Cell Line	relative viability
SK-MES-1	0.383
H3255	0.5
COR-L23	0.728
COR-L 105	0.318
IA-LM	0.201
LOU-NH91	0.554
ChaGo-K-1	0.544
NCI-H2170	0.275
NCI-H2405	0.427
HOP-62	0.657
A549	0.456
NCI-H2009	0.749
NCI-H661	0.371
SK-LU-1	0.428
NCI-H1299	0.752
CAL-12T	0.523
NCI-H2228	0.284
NCI-H2023	0.196
NCI-H1563	0.669

Compound: Cc1nc(C(=O)NCC(=O)O)c(O)c2ccc(Oc3ccccc3)cc12 [FG-4592] + Nc1ncn([C@H]2C[C@H](O)[C@@H](CO)O2)c(=O)n1 [Decitabine] (partner 2 µM)
Experiment: as above
Settings: first compound 0.08 µM
Outline: as §1

Cell Line	relative viability
NCI-H522	0.706
NCI-H727	0.889
NCI-H1650	0.504
NCI-H1993	0.695
SW 1573	0.516
NCI-H838	0.456
LCLC-103H	0.773
NCI-H520	0.454
NCI-H2126	0.54
EMC-BAC-2	1.01
NCI-H2085	0.554
HCC-366	0.359
NCI-H1666	0.836
NCI-H596	0.92
LK-2	0.273
NCI-H2087	0.368

Cell Line	relative viability
NCI-H2342	0.841
SK-MES-1	0.369
H3255	0.702
COR-L23	0.422
COR-L 105	0.649
LOU-NH91	0.861
ChaGo-K-1	0.508
NCI-H2170	0.445
NCI-H2405	0.69
HOP-62	0.216
A549	0.276
NCI-H1648	0.549
NCI-H2009	0.406
NCI-H661	0.526
SK-LU-1	0.66
NCI-H2023	0.231

Same assay, conditions: first compound 0.253 µM

Cell Line	relative viability
NCI-H522	0.514
NCI-H727	0.663
NCI-H1650	0.378
NCI-H1993	0.602
SW 1573	0.505
NCI-H838	0.439
LCLC-103H	0.747
NCI-H520	0.443
NCI-H2126	0.541
EMC-BAC-2	0.962
NCI-H2085	0.493
HCC-366	0.347
NCI-H1666	0.724
NCI-H596	1.01
LK-2	0.272
NCI-H2087	0.308
NCI-H2342	0.793

Cell Line	relative viability
SK-MES-1	0.424
H3255	0.585
COR-L23	0.371
COR-L 105	0.691
LOU-NH91	0.802
ChaGo-K-1	0.427
NCI-H2170	0.479
NCI-H2405	0.714
HOP-62	0.219
A549	0.214
SW 900	0.47
NCI-H1648	0.484
NCI-H2009	0.339
NCI-H661	0.469
SK-LU-1	0.55
NCI-H2023	0.209

Same assay, conditions: first compound 0.8 µM

Cell Line	relative viability
NCI-H727	1.15
NCI-H1650	0.358
SW 1573	0.537
NCI-H838	0.446
LCLC-103H	0.664
NCI-H520	0.493
NCI-H2126	0.543
NCI-H2085	0.51
HCC-366	0.324
NCI-H1666	0.867
LK-2	0.274
NCI-H2087	0.348
NCI-H2342	0.662
SK-MES-1	0.419
H3255	0.6
COR-L23	0.377
COR-L 105	0.597
LOU-NH91	0.814
ChaGo-K-1	0.509
NCI-H2170	0.447
NCI-H2405	0.702
HOP-62	0.223
A549	0.378
NCI-H2009	0.381
NCI-H661	0.563
SK-LU-1	0.671
NCI-H2023	0.222

Same assay, conditions: first compound 2.53 µM

Cell Line	relative viability
NCI-H522	0.65
NCI-H727	0.9
NCI-H1650	0.421
NCI-H1993	0.665
SW 1573	0.482
NCI-H838	0.459
LCLC-103H	0.741
NCI-H520	0.577
NCI-H2126	0.578
EMC-BAC-2	1.02
NCI-H2085	0.597
HCC-366	0.383
NCI-H1666	0.711
NCI-H596	0.897
LK-2	0.371
NCI-H2342	0.772

Cell Line	relative viability
SK-MES-1	0.414
H3255	0.592
COR-L23	0.393
COR-L 105	0.621
LOU-NH91	0.802
ChaGo-K-1	0.493
NCI-H2170	0.506
NCI-H2405	0.688
HOP-62	0.199
A549	0.281
SW 900	0.465
NCI-H1648	0.416
NCI-H2009	0.343
NCI-H661	0.535
SK-LU-1	0.582
NCI-H2023	0.243

Same assay, conditions: first compound 8 µM

Cell Line	relative viability
NCI-H522	0.74
NCI-H727	0.84
NCI-H1650	0.331
NCI-H1993	0.572
SW 1573	0.447
NCI-H838	0.443
LCLC-103H	0.66
NCI-H520	0.434
NCI-H2126	0.578
EMC-BAC-2	0.942
NCI-H2085	0.545
HCC-366	0.308
NCI-H1666	0.759
NCI-H596	0.8
LK-2	0.295
NCI-H2087	0.256
NCI-H2342	0.608
SK-MES-1	0.385
